Test results as given in patent US12516049B2, “Sulfonylurea ring substituted monocyclic β-lactam antibiotics” (priority 2019, dated 2026).
In brackets after ≈: the same amount, converted by molar mass.

Legend:
Type in all cases: cell-based
[1] = test system: Enterobacter cloacae ATCC BAA-1143 (AmpC); assay: MIC, micro-liquid dilution (CLSI); details: ATCCBAA1143, E. cloacae ATCC BAA-1143, Class C (AmpC), 20-24 h, 37° C.
Description: (§1) Three strains of Klebsiella pneumonia, ATCC BAA-205 (TEM-1/SHV-1/SHV-12), ATCC BAA-1705 (KPC-2), ATCC BAA-2470 (NDM-1), Enterobacter cloacae ATCC BAA-1143 (AmpC), two strains of Escherichia coli ATCC BAA-2523 (OXA-48), ATCC 25922 were used to determine the minimum inhibitory concentration (MIC) of each of the compounds by micro-liquid dilution method according to the Institute of Clinical and Laboratory Standard (CLSI) requirements. […]. The plate was placed upside down at 37° C. and the MIC value was read after 20-24 h of incubation, and the lowest drug concentration that inhibited the growth of bacteria was set as MIC. Colony-Forming Units (CFU) refer to the total number of bacterial colonies per unit volume.

[2] = test system: Escherichia coli ATCC 25922; assay: MIC, micro-liquid dilution (CLSI); details: ATCC25922, E. coli ATCC 25922, 20-24 h, 37° C.
Description: as §1

[3] = test system: Escherichia coli ATCC BAA-2523 (OXA-48); assay: MIC, micro-liquid dilution (CLSI); details: ATCCBAA2523, E. coli ATCC BAA-2523, Class D (OXA-48), 20-24 h, 37° C., read-out: MIC
Description: as §1

[4] = test system: Klebsiella pneumonia ATCC BAA-1705 (KPC-2); assay: MIC, micro-liquid dilution (CLSI); details: Klebsiella pneumoniae, ATCCBAA1705; K. pneumonia ATCC BAA-1705, Class A (KPC-2); 20-24 h, 37° C.
Description: as §1

[5] = test system: Klebsiella pneumonia ATCC BAA-205 (TEM-1/SHV-1/SHV-12); assay: MIC, micro-liquid dilution (CLSI); details: Klebsiella pneumoniae, ATCCBAA205; K. pneumonia ATCC BAA-205, Class A (TEM-1/SHV-1/SHV-12); 20-24 h, 37° C.
Description: as §1

[6] = test system: Klebsiella pneumonia ATCC BAA-2470 (NDM-1); assay: MIC, micro-liquid dilution (CLSI); details: Klebsiella pneumoniae, ATCCBAA2470; K. pneumonia ATCC BAA-2470, Class B (NDM-1); 20-24 h, 37° C.
Description: as §1

E.coli 020028 = assay: MIC, two-fold agar dilution, clinical isolate; details: Escherichia coli, single drug, average of three tests
Description: (§2) The minimum inhibitory concentration (MIC) of the compound and combination with β-lactamase (MBLs) inhibitors against clinically isolated carbapenem-resistant enterobacteriaceae was determined by the two-fold agar dilution method to determine the activity of the compound to be tested against strains producing MBLs. Antibiotics and enzyme inhibitors were weighed separately and dissolved in sterile ultrapure water or dimethyl sulfoxide to prepare mother liquor, MHA medium was prepared, pH was adjusted to 7.2-7.4, and it was sterilized at 121° C. for 15 minutes and placed in a 55° C. water bath for heat preservation. The mother liquor was diluted to the concentration to be tested by double dilution method, an inoculum liquid was prepared by direct bacterial suspension method, 1 mL of the prepared bacteria solution was withdrawn and putted into the inoculation tube, and a positioning needle and an inoculation needle were installed. A bacterial multi-point inoculator was started for inoculation. After the bacterial solution was absorbed by the agar, the plate was placed upside down in an incubator at 37° C. for 16-20 hours, and the results were observed. The average of three tests was taken.

E.coli 020031 = assay: MIC, two-fold agar dilution, clinical isolate; details: Escherichia coli, single drug, average of three tests
Description: as §2

E.coli 020033 = assay: MIC, two-fold agar dilution, clinical isolate; details: Escherichia coli, single drug, average of three tests
Description: as §2

E.coli 115103 = assay: MIC, two-fold agar dilution, clinical isolate; details: Escherichia coli; E.coli 115103; single drug; average of three tests; read-out: MIC
Description: as §2

E.coli BAA-2452 = assay: MIC, two-fold agar dilution, clinical isolate; details: Escherichia coli, BAA2452; E.coli BAA-2452; single drug; average of three tests; read-out: MIC
Description: as §2

E.coli C1569 = assay: MIC, two-fold agar dilution, clinical isolate; details: Escherichia coli, single drug, average of three tests
Description: as §2

E.coli CRE18 = assay: MIC, two-fold agar dilution, clinical isolate; details: Escherichia coli; E.coli CRE18; single drug; average of three tests; read-out: MIC
Description: as §2

E.coli CRE21 = assay: MIC, two-fold agar dilution, clinical isolate; details: Escherichia coli; E.coli CRE21; single drug; average of three tests; read-out: MIC
Description: as §2

E.coli CRE23 = assay: MIC, two-fold agar dilution, clinical isolate; details: Escherichia coli; E.coli CRE23; single drug; average of three tests; read-out: MIC
Description: as §2

E.coli CRE28 = assay: MIC, two-fold agar dilution, clinical isolate; details: Escherichia coli; E.coli CRE28; single drug; average of three tests; read-out: MIC
Description: as §2

K.p 090339 = assay: MIC, two-fold agar dilution, clinical isolate; details: K.p 090339; single drug; average of three tests; read-out: MIC
Description: as §2

K.p 115004 = assay: MIC, two-fold agar dilution, clinical isolate; details: K.p 115004; single drug; average of three tests; read-out: MIC
Description: as §2

K.p 11544 = assay: MIC, two-fold agar dilution, clinical isolate; details: K.p 11544; single drug; average of three tests; read-out: MIC
Description: as §2

K.p 13249 = assay: MIC, two-fold agar dilution, clinical isolate; details: K.p 13249; single drug; average of three tests; read-out: MIC
Description: as §2

K.p 6777 = assay: MIC, two-fold agar dilution, clinical isolate; details: K.p 6777; single drug; average of three tests; read-out: MIC
Description: as §2

K.p BAA-2470 = assay: MIC, two-fold agar dilution, clinical isolate; details: K.p BAA-2470; single drug; average of three tests; read-out: MIC
Description: as §2

K.p C904 = assay: MIC, two-fold agar dilution, clinical isolate; details: K.p C904; single drug; average of three tests; read-out: MIC
Description: as §2

K.p CRE11 = assay: MIC, two-fold agar dilution, clinical isolate; details: K.p CRE11; single drug; average of three tests; read-out: MIC
Description: as §2

K.p CRE12 = assay: MIC, two-fold agar dilution, clinical isolate; details: single drug, average of three tests
Description: as §2

K.p CRE16 = assay: MIC, two-fold agar dilution, clinical isolate; details: single drug, average of three tests
Description: as §2

K.p HX37 = assay: MIC, two-fold agar dilution, clinical isolate; details: K.p HX37; single drug; average of three tests; read-out: MIC
Description: as §2

K.p HX77 = assay: MIC, two-fold agar dilution, clinical isolate; details: single drug, average of three tests
Description: as §2

[7] = test system: Morganella morganii C1274; assay: MIC, two-fold agar dilution, clinical isolate; details: Morganella morganii C1274; single drug; average of three tests; read-out: MIC
Description: as §2

E.coli 115101 = assay: MIC, two-fold agar dilution, clinical isolate; details: Escherichia coli; E.coli 115101; single drug; average of three tests; read-out: MIC
Description: as §2, with “Antibiotics and enzyme inhibitors were weighed separately and dissolved in sterile ultrapure water or dimethyl sulfoxide to prepare mother liquor, MHA medium was prepared, pH was adjusted to 7.2-7.4, and it was sterilized at 121° C. for 15 minutes and placed in a 55° C. water bath for heat preservation.” left out

E.coli 115105 = assay: MIC, two-fold agar dilution, clinical isolate; details: Escherichia coli, single drug, average of three tests
Description: as §2, with “Antibiotics and enzyme inhibitors were weighed separately and dissolved in sterile ultrapure water or dimethyl sulfoxide to prepare mother liquor, MHA medium was prepared, pH was adjusted to 7.2-7.4, and it was sterilized at 121° C. for 15 minutes and placed in a 55° C. water bath for heat preservation.” left out

K.p HX30 = assay: MIC, two-fold agar dilution, clinical isolate; details: K.p HX30; single drug; average of three tests; read-out: MIC
Description: as §2, with “Antibiotics and enzyme inhibitors were weighed separately and dissolved in sterile ultrapure water or dimethyl sulfoxide to prepare mother liquor, MHA medium was prepared, pH was adjusted to 7.2-7.4, and it was sterilized at 121° C. for 15 minutes and placed in a 55° C. water bath for heat preservation.” left out

[8] = test system: clinically isolated carbapenem-resistant enterobacteriaceae; details: single drug; panel of 26 strains of Table 2
Description: as §2, with “Antibiotics and enzyme inhibitors were weighed separately and dissolved in sterile ultrapure water or dimethyl sulfoxide to prepare mother liquor, MHA medium was prepared, pH was adjusted to 7.2-7.4, and it was sterilized at 121° C. for 15 minutes and placed in a 55° C. water bath for heat preservation.” left out

| Compound | MIC [1] | MIC [2] | MIC [3] | MIC [4] | MIC [5] | MIC [6] | MIC (E.coli 020028) | MIC (E.coli 020031) | MIC (E.coli 020033) | MIC (E.coli 115103) | MIC (E.coli BAA-2452) | MIC (E.coli C1569) | MIC (E.coli CRE18) | MIC (E.coli CRE21) | MIC (E.coli CRE23) | MIC (E.coli CRE28) | MIC (K.p 090339) | MIC (K.p 115004) | MIC (K.p 11544) | MIC (K.p 13249) | further results |
| --- | --- | --- | --- | --- | --- | --- | --- | --- | --- | --- | --- | --- | --- | --- | --- | --- | --- | --- | --- | --- | --- |
| N=C(N)NC[C@@H]1CN(C[C@@H]2[C@H](NC(=O)/C(=N\OC3(C(=O)O)CC3)c3csc(N)n3)C(=O)N2S(=O)(=O)O)S(=O)(=O)N1 [Compound 5] | 1 µg/mL (≈ 1.6 µM) | 0.5 µg/mL (≈ 0.8 µM) | 0.25 µg/mL (≈ 0.4 µM) | 1 µg/mL (≈ 1.6 µM) | 1 µg/mL (≈ 1.6 µM) | 0.5 µg/mL (≈ 0.8 µM) |  |  |  |  |  |  |  |  |  |  |  |  |  |  |  |
| CC(=O)NC[C@@H]1CN(C[C@@H]2[C@H](NC(=O)/C(=N\OC3(C(=O)O)CC3)c3csc(N)n3)C(=O)N2S(=O)(=O)O)S(=O)(=O)N1 [Compound 6] | 1 µg/mL (≈ 1.6 µM) | 4 µg/mL (≈ 6.4 µM) | 0.25 µg/mL (≈ 0.4 µM) | 8 µg/mL (≈ 12.8 µM) | 2 µg/mL (≈ 3.2 µM) | 1 µg/mL (≈ 1.6 µM) |  |  |  |  |  |  |  |  |  |  |  |  |  |  |  |
| Nc1nc(/C(=N/OC2(C(=O)O)CC2)C(=O)N[C@@H]2C(=O)N(S(=O)(=O)O)[C@@H]2CN2CCOC2=O)cs1 [LYS 228] |  |  |  |  |  |  | 0.125 µg/mL | 4 µg/mL | 8 µg/mL | 8 µg/mL | 0.5 µg/mL | 4 µg/mL | 4 µg/mL | 4 µg/mL | 2 µg/mL | 4 µg/mL | 0.25 µg/mL | 0.25 µg/mL | 0.125 µg/mL | 0.125 µg/mL | MIC (K.p 6777): 1 µg/mL; MIC (K.p BAA-2470): 0.25 µg/mL; MIC (K.p C904): 0.125 µg/mL; MIC (K.p CRE11): 0.125 µg/mL; MIC (K.p CRE12): 0.125 µg/mL; MIC (K.p CRE16): 0.06 µg/mL; MIC (K.p HX37): 0.5 µg/mL; MIC (K.p HX77): 0.03 µg/mL; MIC [7]: 0.25 µg/mL; MIC (E.coli 115101): 4 µg/mL; MIC (E.coli 115105): 4 µg/mL; MIC (K.p HX30): 2 µg/mL; MIC50 [8]: 0.5 µg/mL; MIC90 [8]: 4 µg/mL |
| C[C@@H](O)[C@H]1C(=O)N2C(C(=O)O)=C(S[C@@H]3CN[C@H](C(=O)N(C)C)C3)[C@H](C)[C@H]12 [Meropenem] |  |  |  |  |  |  | 16 µg/mL | 32 µg/mL | 32 µg/mL | 16 µg/mL | 16 µg/mL | 16 µg/mL | 32 µg/mL | 64 µg/mL | 32 µg/mL | 32 µg/mL | 16 µg/mL | 16 µg/mL | 16 µg/mL | 32 µg/mL | MIC (K.p 6777): 8 µg/mL; MIC (K.p BAA-2470): 32 µg/mL; MIC (K.p C904): 16 µg/mL; MIC (K.p CRE11): 32 µg/mL; MIC (K.p CRE12): 16 µg/mL; MIC (K.p CRE16): 8 µg/mL; MIC (K.p HX37): 32 µg/mL; MIC (K.p HX77): 16 µg/mL; MIC [7]: 2 µg/mL; MIC50 [8]: 16 µg/mL |
